Counter-ions that a name gives are not always drawn. Like-named read-outs stand apart in the source and are kept apart here.
How the values were obtained:
[1] = biological target: T1, BRAFV600E full-length (amino acids 2-766) (Homo sapiens, UniProt P15056, V600E); assay: B-Raf Accelerated MEK ATPase assay (BRAMA); assay type: biochemical; conditions: categorized
T1 construct: His6-tagged BRAFV600E full-length (amino acids 2-766); His6; made in house; host or cells: baculovirus expression system (insect cells)
Method in brief: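 Coupled-enzyme readout: ADP generated by MEK-mediated ATP hydrolysis, uncoupled from ERK phosphorylation, is linked to NADH oxidation through pyruvate kinase and lactate dehydrogenase.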

[2] = tested on: Human colon tumor cells (Colo205); assay: Cell growth inhibition assay (CellTiter-Glo), Colo205; assay type: cell-based
Method in brief: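 Luminescent ATP read-out (CellTiter-Glo) served as a proxy for cell number; percent growth inhibition was calculated against DMSO vehicle wells. Cells were treated for 3 days at 37 °C with serially diluted compound, 0.2% DMSO final.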

[3] = tested on: Human melanoma cancer cells (SK-MEL-28); assay: Cell growth inhibition assay (CellTiter-Glo), SK-MEL-28; assay type: cell-based
[4] = B-Raf Activity, Table 1a, highest pIC50 for the one or more runs
[5] = B-Raf pIC50, Table 1b, later runs, average pIC50 for the one or more runs
[6] = COLO 205, 72 h, Table 2a, 3 days incubation, read-out: Activity in Colo205 Tumor Cells
[7] = COLO 205, Table 2b, later runs, average for the one or more runs, categorized, read-out: IC50 for Colo205
[8] = SK-MEL-28, 72 h, Table 3a, 3 days incubation, read-out: Activity in SK-MEL-28 Tumor Cells
[9] = SK-MEL-28, Table 3b, later runs, average for the one or more runs, categorized, read-out: IC50 for SK-MEL-28

T1 sequence (P15056 2-766 V600E): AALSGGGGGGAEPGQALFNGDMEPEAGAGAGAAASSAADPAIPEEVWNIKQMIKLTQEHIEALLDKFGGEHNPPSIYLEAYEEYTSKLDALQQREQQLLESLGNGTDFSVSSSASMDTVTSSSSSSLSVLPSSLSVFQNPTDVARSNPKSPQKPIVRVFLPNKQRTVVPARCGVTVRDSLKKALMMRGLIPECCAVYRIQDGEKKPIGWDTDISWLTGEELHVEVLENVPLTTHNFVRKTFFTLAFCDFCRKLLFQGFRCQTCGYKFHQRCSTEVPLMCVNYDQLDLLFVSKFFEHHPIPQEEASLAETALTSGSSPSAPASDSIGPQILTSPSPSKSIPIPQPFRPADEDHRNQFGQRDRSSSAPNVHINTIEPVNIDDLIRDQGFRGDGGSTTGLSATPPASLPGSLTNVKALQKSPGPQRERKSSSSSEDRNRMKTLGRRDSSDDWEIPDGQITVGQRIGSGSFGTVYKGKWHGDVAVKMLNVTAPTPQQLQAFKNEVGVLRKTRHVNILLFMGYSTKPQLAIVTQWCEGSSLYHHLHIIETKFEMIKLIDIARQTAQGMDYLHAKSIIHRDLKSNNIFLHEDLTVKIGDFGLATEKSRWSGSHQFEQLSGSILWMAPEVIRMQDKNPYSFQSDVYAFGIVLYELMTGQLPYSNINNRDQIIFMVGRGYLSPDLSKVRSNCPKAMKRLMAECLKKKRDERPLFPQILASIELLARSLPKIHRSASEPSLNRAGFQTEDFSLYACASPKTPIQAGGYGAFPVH

Compound | IC50 [1, 4] [nM] | IC50 [1, 5] [nM] | IC50 [2, 6] [nM] | IC50 [2, 7] [nM] | IC50 [3, 8] [nM] | IC50 [3, 9] [nM] | IC50 ([1]; Table 1b, later runs, average pIC50 for the one or more runs, read-out: B-Raf pIC50 (converted)) [nM]
CC(C)c1nc(-c2cccc(NS(=O)(=O)c3c(F)cccc3F)c2F)c(-c2ccnc(N)n2)s1 [Example 60, N-{3-[5-(2-Amino-4-pyrimidinyl)-2-(1-methylethyl)-1,3-thiazol-4-yl]-2-fluorophenyl}-2,6-difluorobenzenesulfonamide] | < 100 | ≤ 3.16 | < 100 | < 100 | < 100 | < 100 | 
Cc1nccc(-c2sc(C(C)(C)C)nc2-c2c(F)ccc(NS(=O)(=O)c3cc(F)ccc3F)c2F)n1 [Example 262, N-{3-[2-(1,1-dimethylethyl)-5-(2-methyl-4-pyrimidinyl)-1,3-thiazol-4-yl]-2,4-difluorophenyl}-2,5-difluorobenzenesulfonamide] |  | ≤ 3.16 |  | < 100 |  | < 100 | 
CCOC(=O)CCc1nccc(-c2sc(C(C)(C)C)nc2-c2cccc(NS(=O)(=O)c3c(F)cccc3F)c2F)n1 [Example 226, ethyl 3-{4-[4-(3-{[(2,6-difluorophenyl)sulfonyl]amino}-2-fluorophenyl)-2-(1,1-dimethylethyl)-1,3-thiazol-5-yl]-2-pyrimidinyl}propanoate] |  | ≤ 3.16 |  | < 100 |  | < 100 | 
Nc1nccc(-c2sc(N3CCOCC3)nc2-c2c(F)ccc(NS(=O)(=O)c3cc(F)ccc3F)c2F)n1 [Example 105, N-{3-[5-(2-Amino-4-pyrimidinyl)-2-(4-morpholinyl)-1,3-thiazol-4-yl]-2,4-difluorophenyl}-2,5-difluorobenzenesulfonamide] | < 100 | ≤ 3.16 | < 100 | < 100 | < 100 | < 100 | 
Cn1cc(S(=O)(=O)Nc2cccc(-c3nc(C(C)(C)C)sc3-c3ccnc(N)n3)c2F)cn1 [Example 283, N-{3-[5-(2-amino-4-pyrimidinyl)-2-(1,1-dimethylethyl)-1,3-thiazol-4-yl]-2-fluorophenyl}-1-methyl-1H-pyrazole-4-sulfonamide hydrochloride] |  |  |  | 100 to 1000 |  | 100 to 1000 | 3.16 to 31.6
C[C@@H]1CN(c2nc(-c3cccc(NS(=O)(=O)c4cc(F)ccc4F)c3F)c(-c3ccnc(N)n3)s2)C[C@H](C)O1 [Example 103, N-(3-{5-(2-Amino-4-pyrimidinyl)-2-[(2R,6S)-2,6-dimethyl-4-morpholinyl]-1,3-thiazol-4-yl}-2-fluorophenyl)-2,5-difluorobenzenesulfonamide] | < 100 | ≤ 3.16 | < 100 | < 100 | < 100 | < 100 | 
COCCNc1nccc(-c2sc(C(C)C)nc2-c2ccc(F)c(NS(=O)(=O)c3c(F)cccc3F)c2)n1 [Example 159] | 100 to 1000 | 31.6 to 1000 | 100 to 1000 | 100 to 1000 | 100 to 1000 | 100 to 1000 | 
CC(C)CNc1nccc(-c2sc(C(C)C)nc2-c2cccc(NS(=O)(=O)c3c(F)cccc3F)c2F)n1 [Example 176] | < 100 | ≤ 3.16 | < 100 | < 100 | < 100 | < 100 | 
CC(C)c1nc(-c2cccc(NS(=O)(=O)c3nccs3)c2F)c(-c2ccnc(NC3CCN(S(C)(=O)=O)CC3)n2)s1 [Example 40, N-{2-Fluoro-3-[2-(1-methylethyl)-5-(2-{[1-(methylsulfonyl)-4-piperidinyl]amino}-4-pyrimidinyl)-1,3-thiazol-4-yl]phenyl}-1,3-thiazole-2-sulfonamide] | < 100 | ≤ 3.16 | 100 to 1000 | 100 to 1000 | 100 to 1000 | 100 to 1000 | 
CCNc1nccc(-c2sc(C(C)C)nc2-c2ccc(F)c(NS(=O)(=O)c3c(F)cccc3F)c2)n1 [Example 9, N-{5-[5-[2-(Ethylamino)-4-pyrimidinyl]-2-(1-methylethyl)-1,3-thiazol-4-yl]-2-fluorophenyl}-2,6-difluorobenzenesulfonamide] | 100 to 1000 | 31.6 to 1000 | > 1000 | 1000 to 10000 | > 1000 | 1000 to 10000 | 

Source: patent publication US7994185B2, “Benzene sulfonamide thiazole and oxazole compounds” (Glaxo Smith Kline LLC, priority 2008, dated 2011)
